Source: US8993632B2, “Inhibitors of the 11-beta-hydroxysteroid dehydrogenase type 1 enzyme” (AbbVie Inc., priority 2005, dated 2015)
pIC50: −log10 of the molar value.

Columns and labels:
human 11-β-HSD-2 = biological target: T1, human 11-β-HSD-2 (Homo sapiens, UniProt P80365); test: 11β-HSD-2 Scintillation Proximity Assay (tritiated cortisol, NAD+); type: biochemical; conditions: human enzyme, SPA
T1 sequence (P80365 1-405): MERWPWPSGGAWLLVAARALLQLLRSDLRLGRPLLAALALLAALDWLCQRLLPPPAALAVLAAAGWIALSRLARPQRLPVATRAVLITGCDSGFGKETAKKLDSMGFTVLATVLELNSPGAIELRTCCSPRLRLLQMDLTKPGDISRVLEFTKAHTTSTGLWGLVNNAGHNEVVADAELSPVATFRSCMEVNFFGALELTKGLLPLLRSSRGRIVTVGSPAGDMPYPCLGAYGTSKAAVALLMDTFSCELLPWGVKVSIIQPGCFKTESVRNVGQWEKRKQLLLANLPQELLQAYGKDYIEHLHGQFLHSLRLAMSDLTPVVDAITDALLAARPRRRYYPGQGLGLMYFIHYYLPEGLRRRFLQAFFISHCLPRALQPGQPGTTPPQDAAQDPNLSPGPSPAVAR
Protocol: (§1) The reaction was stopped by adding a non-specific 11β-HSD inhibitor, 18β-glycyrrhetinic acid. The tritiated cortisol was captured by a mixture of an anti-cortisol monoclonal antibody and SPA beads coated with anti-mouse antibodies. The reaction plate was shaken at room temperature and the radioactivity bound to SPA beads was then measured on a β-scintillation counter. The 11-βHSD-1 assay was carried out in 96-well microtiter plates in a total volume of 220 μl. […] In order to drive the reaction in the forward direction, 1 mM G-6-P was also added. Solid compound was dissolved in DMSO to make a 10 mM stock followed by a subsequent 10-fold dilution with 3% DMSO in Tris/EDTA buffer (pH 7.4). […] Reactions were initiated by the addition of 10 μl of 0.1 mg/ml E. coli lysates overexpressing 11β-HSD-1 enzyme. After shaking and incubating plates for 30 minutes at room temperature, reactions were stopped by adding 10 μl of 1 mM glycyrrhetinic acid. The product, tritiated cortisol, was captured by adding 10 μl of […] monoclonal anti-cortisol antibodies and 100 μl SPA beads coated with anti-mouse antibodies. After shaking for 30 minutes, plates were read on a liquid scintillation counter Topcount. Percent inhibition was calculated based on the background and the maximal signal. Wells that contained substrate without compound or enzyme were used as the background, while the wells that contained substrate and enzyme without any compound were considered as maximal signal. Percent of inhibition of each compound was calculated relative to the maximal signal and IC50 curves were generated. This assay was applied to 11β-HSD-2 as well, whereby tritiated cortisol and NAD^+ were used as substrate and cofactor, respectively.

[1] = biological target: T2, truncated human 11β-HSD-1 enzyme (24-287AA) (Homo sapiens, UniProt P28845); test: 11β-HSD-1 enzymatic Scintillation Proximity Assay (SPA); type: biochemical
T2 construct: truncated human 11β-HSD-1 enzyme (24-287AA); made in house; host or cells: E. coli (crude lysate)
Protocol: as §1

T2 sequence (P28845 24-287): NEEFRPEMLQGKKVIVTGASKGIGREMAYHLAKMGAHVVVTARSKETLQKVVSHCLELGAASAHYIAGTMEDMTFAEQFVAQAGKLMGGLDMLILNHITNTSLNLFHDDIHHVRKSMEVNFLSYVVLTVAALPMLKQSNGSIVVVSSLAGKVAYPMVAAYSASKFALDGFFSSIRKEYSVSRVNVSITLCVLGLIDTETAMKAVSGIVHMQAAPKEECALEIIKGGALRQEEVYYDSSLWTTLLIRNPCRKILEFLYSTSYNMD

SMILES	pIC50 (human 11-β-HSD-2)	pIC50 [1]
Cc1ccccc1CN1CCC(C)(C(=O)N[C@@H]2[C@@H]3C[C@@H]4C[C@H]2C[C@@](C(N)=O)(C4)C3)C1=O (stereo partly drawn) [CC]	4.92	7.64
NC(=O)[C@]12C[C@@H]3C[C@H](C1)[C@@H](NC(=O)C1(c4ccccc4)CCCC1)[C@@H](C3)C2 [Compound K, E-4-{[(1-phenylcyclopentyl)carbonyl]amino}adamantane-1-carboxamide]	4.80	7.37
NC(=O)[C@]12C[C@@H]3C[C@H](C1)[C@@H](NC(=O)C1(c4cccc(F)c4)CCCC1)[C@@H](C3)C2 [Compound L, E-4-({[1-(3-fluorophenyl)cyclopentyl]carbonyl}amino)adamantane-1-carboxamide]	4.80	7.60
NC(=O)[C@]12C[C@@H]3C[C@H](C1)[C@@H](NC(=O)C1(c4ccc(F)cc4Cl)CCCC1)[C@@H](C3)C2 [Compound M, E-4-({[1-(2-chloro-4-fluorophenyl)cyclopentyl]carbonyl}amino)adamantane-1-carboxamide]	< 4.52	7.52
CC1(C(=O)N[C@@H]2[C@@H]3C[C@@H]4C[C@H]2C[C@@](C(N)=O)(C4)C3)CCN(Cc2ccccc2Cl)C1=O (stereo partly drawn) [DD]	5.20	7.64
NC(=O)[C@]12C[C@@H]3C[C@H](C1)[C@@H](NC(=O)C1(c4ccc(Cl)cc4)CCCCC1)[C@@H](C3)C2 [G, E-4-({[1-(4-chlorophenyl)cyclohexyl]carbonyl}amino)adamantane-1-carboxamide]	5.13	7.23
NC(=O)[C@]12C[C@@H]3C[C@H](C1)[C@@H](NC(=O)C1(c4ccc(Cl)cc4)CC1)[C@@H](C3)C2 [H, E-4-({[1-(4-chlorophenyl)cyclopropyl]carbonyl}amino)adamantane-1-carboxamide]	< 4.52	7.48
NC(=O)[C@]12C[C@@H]3C[C@H](C1)[C@@H](NC(=O)C1(c4ccc(Cl)cc4)CCCC1)[C@@H](C3)C2 [I, E-4-({[1-(4-chlorophenyl)cyclopentyl]carbonyl}amino)adamantane-1-carboxamide]	4.92	–
NC(=O)[C@]12C[C@@H]3C[C@H](C1)[C@@H](NC(=O)C1(c4ccc(F)cc4)CCCC1)[C@@H](C3)C2 [N, E-4-({[1-(4-fluorophenyl)cyclopentyl]carbonyl}amino)adamantane-1-carboxamide]	< 4.52	7.51
NC(=O)[C@]12C[C@@H]3C[C@H](C1)[C@@H](NC(=O)C1(c4ccccc4F)CCCC1)[C@@H](C3)C2 [O, E-4-({[1-(2-fluorophenyl)cyclopentyl]carbonyl}amino)adamantane-1-carboxamide]	4.80	7.42
CC1(C(=O)N[C@@H]2[C@@H]3C[C@@H]4C[C@H]2C[C@@](C(N)=O)(C4)C3)CCCCC1 [P, E-4-{[(1-methylcyclohexyl)carbonyl]amino}adamantane-1-carboxamide]	< 4.52	7.42
NC(=O)[C@]12C[C@@H]3C[C@H](C1)[C@@H](NC(=O)C1(c4ccc(Cl)cc4Cl)CC1)[C@@H](C3)C2 [Q, E-4-({[1-(2,4-dichlorophenyl)cyclopropyl]carbonyl}amino)adamantane-1-carboxamide]	4.80	7.44
COc1ccc(C2(C(=O)N[C@@H]3[C@@H]4C[C@@H]5C[C@H]3C[C@@](C(N)=O)(C5)C4)CCCC2)cc1 [Y, E-4-({[1-(4-methoxyphenyl)cyclopentyl]carbonyl}amino)adamantane-1-carboxamide]	4.89	7.74

Next, values leading:

pIC50 (human 11-β-HSD-2)	pIC50 [1]	SMILES
< 4.52	7.51	CC(C)(C(=O)N[C@@H]1[C@@H]2C[C@@H]3C[C@H]1C[C@@](C(N)=O)(C3)C2)c1ccc(-c2ccncc2)cc1 [Compound T, E-4-{[2-methyl-2-(4-pyridin-4-ylphenyl)propanoyl]amino}adamantane-1-carboxamide]
< 4.00	7.55	Cn1cc(-c2ccc(C(C)(C)C(=O)N[C@@H]3[C@@H]4C[C@@H]5C[C@H]3C[C@@](C(N)=O)(C5)C4)cc2)cn1 [FF, E-4-({2-methyl-2-[4-(1-methyl-1H-pyrazol-4-yl)phenyl]propanoyl}amino)adamantane-1-carboxamide]
5.03	7.77	CC(C)(C(=O)N[C@@H]1[C@@H]2C[C@@H]3C[C@H]1C[C@@](C(N)=O)(C3)C2)c1cccc(Br)c1 [GG, E-4-{[2-(3-bromophenyl)-2-methylpropanoyl]amino}adamantane-1-carboxamide]
4.40	7.36	Cc1noc(C)c1-c1ccc(C(C)(C)C(=O)N[C@@H]2[C@@H]3C[C@@H]4C[C@H]2C[C@@](C(N)=O)(C4)C3)cc1 [HH, E-4-({2-[4-(3,5-dimethylisoxazol-4-yl)phenyl]-2-methylpropanoyl}amino)adamantane-1-carboxamide]
4.36	–	CC(C)(C(=O)N[C@@H]1[C@@H]2C[C@@H]3C[C@H]1C[C@@](C(N)=O)(C3)C2)c1ccc(-c2cccnc2)cc1 [II, E-4-{[2-methyl-2-(4-pyridin-3-ylphenyl)propanoyl]amino}adamantane-1-carboxamide]
–	7.48	CC(C)(C(=O)N[C@@H]1[C@@H]2C[C@@H]3C[C@H]1C[C@@](C(N)=O)(C3)C2)c1ccc(Cl)cc1 [J, E-4-{[2-(4-chlorophenyl)-2-methylpropanoyl]amino}adamantane-1-carboxamide]
4.22	7.02	CC(C)(C(=O)N[C@@H]1[C@@H]2C[C@@H]3C[C@H]1C[C@@](C(=O)NCc1ccc(C(=O)O)cc1)(C3)C2)c1cccs1 [JJ, 4-{[({(E)-4-[(2-methyl-2-thien-2-ylpropanoyl)amino]-1-adamantyl}carbonyl)amino]methyl}benzoic acid]
4.68	7.57	COc1ccc(C2(C(=O)N[C@@H]3[C@@H]4C[C@@H]5C[C@H]3C[C@@](C(N)=O)(C5)C4)CC2)cc1 [R, E-4-({[1-(4-methoxyphenyl)cyclopropyl]carbonyl}amino)adamantane-1-carboxamide]
4.82	7.43	Cc1ccc(C2(C(=O)N[C@@H]3[C@@H]4C[C@@H]5C[C@H]3C[C@@](C(N)=O)(C5)C4)CC2)cc1 [S, E-4-({[1-(4-methylphenyl)cyclopropyl]carbonyl}amino)adamantane-1-carboxamide]
4.92	7.80	CC(C)(C(=O)N[C@@H]1[C@@H]2C[C@@H]3C[C@H]1C[C@@](C(N)=O)(C3)C2)c1cccs1 [U, E-4-[(2-methyl-2-thien-2-ylpropanoyl)amino]adamantane-1-carboxamide]
4.82	7.72	CC(C)(C(=O)N[C@@H]1[C@@H]2C[C@@H]3C[C@H]1C[C@@](C(N)=O)(C3)C2)c1ccsc1 [V, E-4-[(2-methyl-2-thien-3-ylpropanoyl)amino]adamantane-1-carboxamide]
< 4.52	7.64	CC(C)(C(=O)N[C@@H]1[C@@H]2C[C@@H]3C[C@H]1C[C@@](C(N)=O)(C3)C2)c1ccc(C(F)(F)F)cn1 [W, E-4-({2-methyl-2-[5-(trifluoromethyl)pyridin-2-yl]propanoyl}amino)adamantane-1-carboxamide]
< 4.52	6.98	CC(C)(C(=O)N[C@@H]1[C@@H]2C[C@@H]3C[C@H]1C[C@@](C(N)=O)(C3)C2)c1ccc(-c2ccc(C(F)(F)F)cn2)cc1 [X, E-4-[(2-methyl-2-{4-[5-(trifluoromethyl)pyridin-2 yl]phenyl}propanoyl)amino]adamantane-1-carboxamide]
4.64	7.68	CC(C)(C(=O)N[C@@H]1[C@@H]2C[C@@H]3C[C@H]1C[C@@](C(N)=O)(C3)C2)c1ccc(Br)cc1 [Z, E-4-{[2-(4-bromophenyl)-2-methylpropanoyl]amino}adamantane-1-carboxamide]
